This note sets out measurements from patent US10457707B2, “Substituted urea depsipeptide analogs as activators of the CLPP endopeptidase” (priority 2015, dated 2019).

Values after ≈ are worked out from the molar mass of the structure shown. *1 amine or outer side, *2 acyl side, *3 side chain or, on linkers, in order; H or OH if unused. Where a SMILES comes first, the peptide text is derived from it. Bridges are numbered along the chain shown (N, C = ends). [ ]: non-standard residue; d: D form. The star is where a group is joined. ξ: configuration not given here. NH(1,3-benzodioxol-5-yl) = c1cc2c(cc1N*)OCO2; Phe(3,5-F2) = N[C@@H](Cc1cc(F)cc(F)c1)C(=O)O; NH(4-OCF3-phenyl) = FC(F)(F)Oc1ccc(N*)cc1; Morpholine(3S-CO) = O=C(O)[C@@H]1COCCN1; Pro(4S-Me) = C[C@@H]1CN[C@H](C(=O)O)C1; Pro(4R-Me) = C[C@H]1CN[C@H](C(=O)O)C1; NH(3,4-Me2-phenyl) = Cc1ccc(N*)cc1C; NMeaThr = CN[C@H](C(=O)O)[C@H](C)O; Hyp = O=C(O)[C@@H]1C[C@@H](O)CN1; NH(4-Et-phenyl) = CCc1ccc(N*)cc1; NH(4-Me-phenyl) = Cc1ccc(N*)cc1; ξNMeThr = CNC(C(=O)O)[C@@H](C)O; aThr = C[C@H](O)[C@H](N)C(=O)O; Pip = O=C(O)[C@@H]1CCCCN1; CO = O=C([*:1])[*:2] A value given as a limit tells only on which side of the number the result lay.

The subject of assay [1] is Staphylococcus aureus, USA 300 wherein ClpP is inactivated. Kind of assay: Minimal inhibitory concentration assay. The assay is classed as cell-based. The method, boiled down: (§1)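 Antibacterial activity was measured by CLSI-standard microdilution in broth, using overnight aerobic incubation at 37 °C. Growth inhibition was scored visually, and MIC taken as the lowest concentration preventing growth.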

Assay [2] has as its system Staphylococcus aureus, USA 300. Nature of the assay: Minimal inhibitory concentration assay. The format is cell-based. The settings on record: USA300, read-out: Minimal Inhibitory Concentrations S. aureus USA 300. The method, boiled down:
as §1

Consider `C[C@H]1C[C@H]2C(=O)O[C@@H](C)[C@H](NC(=O)[C@H](Cc3cc(F)cc(F)c3)NC(=O)Nc3ccc(OC(F)(F)F)cc3)C(=O)N3CCC[C@H]3C(=O)N3CCOC[C@H]3C(=O)N[C@@H](C)C(=O)N2C1` [Compound 201, (S)-3-(3,5-difluorophenyl)-2-(3-(4-(trifluoromethoxy)phenyl)ureido)-N-((6aS,12S,13S,15aS,17S,21S,23aS)-13,17,21-trimethyl-6,11,15,20,23-pentaoxooctadecahydro-6H,11H,15H-[1,4]oxazino[3,4-i]dipyrrolo[2,1-c:2′,1′-l][1]oxa[4,7,10,13]tetraazacyclohexadecin-12-yl)propanamide] ({NH(4-OCF3-phenyl)-CO}-[Phe(3,5-F2)][aThr]P[Morpholine(3S-CO)]A[Pro(4S-Me)]; ester 2-C), for which the “Minimal Inhibitory Concentrations S. aureus USA 300 ΔClpP” value in assay [1] is 50 µM. Also, the MIC in assay [2] came to 0.049 µM (≈ 0.0431 µg/mL). For `Cc1ccc(NC(=O)N[C@@H](Cc2cc(F)cc(F)c2)C(=O)N[C@@H]2C(=O)N3CCC[C@H]3C(=O)N(C)[C@@H]([C@H](C)O)C(=O)N[C@@H](C)C(=O)N3C[C@@H](C)C[C@H]3C(=O)O[C@H]2C)cc1` [Compound 202, (S)-3-(3,5-difluorophenyl)-N-((2S,6S,9S,11aS,17S,18S,20aS)-9-((S)-1-hydroxyethyl)-2,6,10,18-tetramethyl-5,8,11,16,20-pentaoxohexadecahydro-1H,5H,16H-dipyrrolo[2,1-c:2′,1′-L][1]oxa[4,7,10,13]tetraazacyclohexadecin-17-yl)-2-(3-(p-tolyl)ureido)propanamide] ({NH(4-Me-phenyl)-CO}-[Phe(3,5-F2)][aThr]P[NMeaThr]A[Pro(4S-Me)]; ester 2-C) the same measures were 200 µM and 0.195 µM (≈ 0.158 µg/mL). Turning to `C[C@H]1C[C@H]2C(=O)O[C@@H](C)[C@H](NC(=O)[C@H](Cc3cc(F)cc(F)c3)NC(=O)Nc3ccc(OC(F)(F)F)cc3)C(=O)N3CCC[C@H]3C(=O)N(C)[C@@H]([C@H](C)O)C(=O)N[C@@H](C)C(=O)N2C1` [Compound 203, (S)-3-(3,5-difluorophenyl)-N-((2S,6S,9S,11aS,17S,18S,20aS)-9-((S)-1-hydroxyethyl)-2,6,10,18-tetramethyl-5,8,11,16,20-pentaoxohexadecahydro-1H,5H,16H-dipyrrolo[2,1-c:2′,1′-l][1]oxa[4,7,10,13]tetraazacyclohexadecin-17-yl)-2-(3-(4-(trifluoromethoxy)phenyl)ureido)propanamide] ({NH(4-OCF3-phenyl)-CO}-[Phe(3,5-F2)][aThr]P[NMeaThr]A[Pro(4S-Me)]; ester 2-C), the “Minimal Inhibitory Concentrations S. aureus USA 300 ΔClpP” value in assay [1] is 50 µM. Also, the MIC in assay [2] was determined as 0.098 µM (≈ 0.0864 µg/mL).

On to `CCc1ccc(NC(=O)N[C@@H](Cc2cc(F)cc(F)c2)C(=O)N[C@@H]2C(=O)N3CCC[C@H]3C(=O)N(C)[C@@H]([C@H](C)O)C(=O)N[C@@H](C)C(=O)N3C[C@@H](C)C[C@H]3C(=O)O[C@H]2C)cc1` [Compound 204, (S)-3-(3,5-difluorophenyl)-2-(3-(4-ethylphenyl)ureido)-N-((2S,6S,9S,11aS,17S,18S,20aS)-9-((S)-1-hydroxyethyl)-2,6,10,18-tetramethyl-5,8,11,16,20-pentaoxohexadecahydro-1H,5H,16H-dipyrrolo[2,1-c:2′,1′-l][1]oxa[4,7,10,13]tetraazacyclohexadecin-17-yl)propanamide] ({NH(4-Et-phenyl)-CO}-[Phe(3,5-F2)][aThr]P[NMeaThr]A[Pro(4S-Me)]; ester 2-C), for which the “Minimal Inhibitory Concentrations S. aureus USA 300 ΔClpP” value in assay [1] was found to be 100 µM. Besides, the MIC in assay [2] was 0.098 µM (≈ 0.0809 µg/mL). For `Cc1ccc(NC(=O)N[C@@H](Cc2cc(F)cc(F)c2)C(=O)N[C@@H]2C(=O)N3CCC[C@H]3C(=O)N(C)[C@@H]([C@H](C)O)C(=O)N[C@@H](C)C(=O)N3C[C@H](C)C[C@H]3C(=O)O[C@H]2C)cc1` [Compound 208, (S)-3-(3,5-difluorophenyl)-N-((2R,6S,9S,11aS,17S,18S,20aS)-9-((S)-1-hydroxyethyl)-2,6,10,18-tetramethyl-5,8,11,16,20-pentaoxohexadecahydro-1H,5H,16H-dipyrrolo[2,1-c:2′,1′-l][1]oxa[4,7,10,13]tetraazacyclohexadecin-17-yl)-2-(3-(p-tolyl)ureido)propanamide] ({NH(4-Me-phenyl)-CO}-[Phe(3,5-F2)][aThr]P[NMeaThr]A[Pro(4R-Me)]; ester 2-C) the same measures were 200 µM and 0.1 µM (≈ 0.0812 µg/mL). For `Cc1ccc(NC(=O)N[C@@H](Cc2cc(F)cc(F)c2)C(=O)N[C@@H]2C(=O)N3CCC[C@H]3C(=O)N3CCCC[C@H]3C(=O)N[C@@H](C)C(=O)N3C[C@H](C)C[C@H]3C(=O)O[C@H]2C)cc1` [Compound 209, (S)-3-(3,5-difluorophenyl)-2-(3-(p-tolyl)ureido)-N-((2R,6S,8aS,14aS,20S,21S,23aS)-2,6,21-trimethyl-5,8,14,19,23-pentaoxooctadecahydro-1H,5H,14H,19H-pyrido[2,1-i]dipyrrolo[2,1-c:2′,1′-l][1]oxa[4,7,10,13]tetraazacyclohexadecin-20-yl)propanamide] ({NH(4-Me-phenyl)-CO}-[Phe(3,5-F2)][aThr]P[Pip]A[Pro(4R-Me)]; ester 2-C) the same measures were 100 µM and 0.05 µM (≈ 0.0404 µg/mL).

As for `Cc1ccc(NC(=O)N[C@@H](Cc2cc(F)cc(F)c2)C(=O)N[C@@H]2C(=O)N3CCC[C@H]3C(=O)N3CCOC[C@H]3C(=O)N[C@@H](C)C(=O)N3C[C@H](C)C[C@H]3C(=O)O[C@H]2C)cc1` [Compound 210, (S)-3-(3,5-difluorophenyl)-2-(3-(p-tolyl)ureido)-N-((6aS,12S,13S,15aS,17R,21S,23aS)-13,17,21-trimethyl-6,11,15,20,23-pentaoxooctadecahydro-6H,11H,15H-[1,4]oxazino[3,4-i]dipyrrolo[2,1-c:2′,1′-l][1]oxa[4,7,10,13]tetraazacyclohexadecin-12-yl)propanamide] ({NH(4-Me-phenyl)-CO}-[Phe(3,5-F2)][aThr]P[Morpholine(3S-CO)]A[Pro(4R-Me)]; ester 2-C), in assay [1], the “Minimal Inhibitory Concentrations S. aureus USA 300 ΔClpP” value is greater than 200 µM. The MIC in assay [2] worked out at 0.006 µM (≈ 0.00486 µg/mL).

With `CCc1ccc(NC(=O)N[C@@H](Cc2cc(F)cc(F)c2)C(=O)N[C@@H]2C(=O)N3C[C@H](O)C[C@H]3C(=O)N3CCCC[C@H]3C(=O)N[C@@H](C)C(=O)N3C[C@H](C)C[C@H]3C(=O)O[C@H]2C)cc1` [Compound 211, (S)-3-(3,5-difluorophenyl)-2-(3-(4-ethylphenyl)ureido)-N-((2R,6S,8aS,14aS,16R,20S,21S,23aS)-16-hydroxy-2,6,21-trimethyl-5,8,14,19,23-pentaoxooctadecahydro-1H,5H,14H,19H-pyrido[2,1-i]dipyrrolo[2,1-c:2′,1′-l][1]oxa[4,7,10,13]tetraazacyclohexadecin-20-yl)propanamide] ({NH(4-Et-phenyl)-CO}-[Phe(3,5-F2)][aThr][Hyp][Pip]A[Pro(4R-Me)]; ester 2-C), in assay [1], the “Minimal Inhibitory Concentrations S. aureus USA 300 ΔClpP” value was greater than 200 µM. In addition, the MIC in assay [2] was 0.04 µM (≈ 0.0335 µg/mL). Consider `Cc1ccc(NC(=O)N[C@@H](Cc2cc(F)cc(F)c2)C(=O)N[C@@H]2C(=O)N3C[C@H](O)C[C@H]3C(=O)N3CCOC[C@H]3C(=O)N[C@@H](C)C(=O)N3C[C@H](C)C[C@H]3C(=O)O[C@H]2C)cc1C` [Compound 215, (S)-3-(3,5-difluorophenyl)-2-(3-(3,4-dimethylphenyl)ureido)-N-((6aS,8R,12S,13S,15aS,17R,21S,23aS)-8-hydroxy-13,17,21-trimethyl-6,11,15,20,23-pentaoxooctadecahydro-6H,11H,15H-[1,4]oxazino[3,4-i]dipyrrolo[2,1-c:2′,1′-l][1]oxa[4,7,10,13]tetraazacyclohexadecin-12-yl)propanamide] ({NH(3,4-Me2-phenyl)-CO}-[Phe(3,5-F2)][aThr][Hyp][Morpholine(3S-CO)]A[Pro(4R-Me)]; ester 2-C), for which the MIC in assay [2] worked out at 0.8 µM (≈ 0.672 µg/mL). On to `C[C@@H]1C[C@H]2C(=O)OC[C@H](NC(=O)[C@H](Cc3cc(F)cc(F)c3)NC(=O)Nc3ccc4c(c3)OCO4)C(=O)N3C[C@H](O)C[C@H]3C(=O)N3CCOC[C@H]3C(=O)N[C@@H](C)C(=O)N2C1` [Compound 318, (S)-2-(3-(benzo[d][1,3]dioxol-5-yl)ureido)-3-(3,5-difluorophenyl)-N-((6aS,8R,12S,15aS,17R,21S,23aS)-8-hydroxy-17,21-dimethyl-6,11,15,20,23-pentaoxooctadecahydro-6H,11H,15H-[1,4]oxazino[3,4-i]dipyrrolo[2,1-c:2′,1′-l][1]oxa[4,7,10,13]tetraazacyclo-hexadecin-12-yl)propanamide] ({NH(1,3-benzodioxol-5-yl)-CO}-[Phe(3,5-F2)]S[Hyp][Morpholine(3S-CO)]A[Pro(4R-Me)]; ester 2-C), for which the MIC in assay [2] came to 100 µM (≈ 84.2 µg/mL). Turning to `Cc1ccc(NC(=O)N[C@@H](Cc2cc(F)cc(F)c2)C(=O)N[C@H]2COC(=O)[C@@H]3C[C@@H](C)CN3C(=O)[C@H](C)NC(=O)C([C@@H](C)O)N(C)C(=O)[C@@H]3CCCN3C2=O)cc1` (stereo partly drawn) [Compound 322, (S)-3-(3,5-difluorophenyl)-N-((2R,6S,9R,11aS,17S,20aS)-9-((R)-1-hydroxyethyl)-2,6,10-trimethyl-5,8,11,16,20-pentaoxohexadecahydro-1H,5H,16H-dipyrrolo[2,1-c:2′,1′-l][1]oxa[4,7,10,13]tetraazacyclohexadecin-17-yl)-2-(3-(p-tolyl)ureido)propanamide] ({NH(4-Me-phenyl)-CO}-[Phe(3,5-F2)]SP[ξNMeThr]A[Pro(4R-Me)]; ester 2-C), in assay [1], the “Minimal Inhibitory Concentrations S. aureus USA 300 ΔClpP” value turned out to be 0.625 µM.
